Test results: ChEMBL document CHEMBL1137464, “Novel steroidal saponins, Sch 725737 and Sch 725739, from a marine starfish, Novodinia antillensis” (Bioorg Med Chem Lett, 2007)

Key:
[1] = target: T1, Sodium channel protein type 10 subunit alpha (Homo sapiens, UniProt Q9Y5Y9); experiment: Inhibition of sodium channel NaV1.8 at 20 ug/mL by HTS assay
Target sequence in this assay (Q9Y5Y9 whole entry, looked up): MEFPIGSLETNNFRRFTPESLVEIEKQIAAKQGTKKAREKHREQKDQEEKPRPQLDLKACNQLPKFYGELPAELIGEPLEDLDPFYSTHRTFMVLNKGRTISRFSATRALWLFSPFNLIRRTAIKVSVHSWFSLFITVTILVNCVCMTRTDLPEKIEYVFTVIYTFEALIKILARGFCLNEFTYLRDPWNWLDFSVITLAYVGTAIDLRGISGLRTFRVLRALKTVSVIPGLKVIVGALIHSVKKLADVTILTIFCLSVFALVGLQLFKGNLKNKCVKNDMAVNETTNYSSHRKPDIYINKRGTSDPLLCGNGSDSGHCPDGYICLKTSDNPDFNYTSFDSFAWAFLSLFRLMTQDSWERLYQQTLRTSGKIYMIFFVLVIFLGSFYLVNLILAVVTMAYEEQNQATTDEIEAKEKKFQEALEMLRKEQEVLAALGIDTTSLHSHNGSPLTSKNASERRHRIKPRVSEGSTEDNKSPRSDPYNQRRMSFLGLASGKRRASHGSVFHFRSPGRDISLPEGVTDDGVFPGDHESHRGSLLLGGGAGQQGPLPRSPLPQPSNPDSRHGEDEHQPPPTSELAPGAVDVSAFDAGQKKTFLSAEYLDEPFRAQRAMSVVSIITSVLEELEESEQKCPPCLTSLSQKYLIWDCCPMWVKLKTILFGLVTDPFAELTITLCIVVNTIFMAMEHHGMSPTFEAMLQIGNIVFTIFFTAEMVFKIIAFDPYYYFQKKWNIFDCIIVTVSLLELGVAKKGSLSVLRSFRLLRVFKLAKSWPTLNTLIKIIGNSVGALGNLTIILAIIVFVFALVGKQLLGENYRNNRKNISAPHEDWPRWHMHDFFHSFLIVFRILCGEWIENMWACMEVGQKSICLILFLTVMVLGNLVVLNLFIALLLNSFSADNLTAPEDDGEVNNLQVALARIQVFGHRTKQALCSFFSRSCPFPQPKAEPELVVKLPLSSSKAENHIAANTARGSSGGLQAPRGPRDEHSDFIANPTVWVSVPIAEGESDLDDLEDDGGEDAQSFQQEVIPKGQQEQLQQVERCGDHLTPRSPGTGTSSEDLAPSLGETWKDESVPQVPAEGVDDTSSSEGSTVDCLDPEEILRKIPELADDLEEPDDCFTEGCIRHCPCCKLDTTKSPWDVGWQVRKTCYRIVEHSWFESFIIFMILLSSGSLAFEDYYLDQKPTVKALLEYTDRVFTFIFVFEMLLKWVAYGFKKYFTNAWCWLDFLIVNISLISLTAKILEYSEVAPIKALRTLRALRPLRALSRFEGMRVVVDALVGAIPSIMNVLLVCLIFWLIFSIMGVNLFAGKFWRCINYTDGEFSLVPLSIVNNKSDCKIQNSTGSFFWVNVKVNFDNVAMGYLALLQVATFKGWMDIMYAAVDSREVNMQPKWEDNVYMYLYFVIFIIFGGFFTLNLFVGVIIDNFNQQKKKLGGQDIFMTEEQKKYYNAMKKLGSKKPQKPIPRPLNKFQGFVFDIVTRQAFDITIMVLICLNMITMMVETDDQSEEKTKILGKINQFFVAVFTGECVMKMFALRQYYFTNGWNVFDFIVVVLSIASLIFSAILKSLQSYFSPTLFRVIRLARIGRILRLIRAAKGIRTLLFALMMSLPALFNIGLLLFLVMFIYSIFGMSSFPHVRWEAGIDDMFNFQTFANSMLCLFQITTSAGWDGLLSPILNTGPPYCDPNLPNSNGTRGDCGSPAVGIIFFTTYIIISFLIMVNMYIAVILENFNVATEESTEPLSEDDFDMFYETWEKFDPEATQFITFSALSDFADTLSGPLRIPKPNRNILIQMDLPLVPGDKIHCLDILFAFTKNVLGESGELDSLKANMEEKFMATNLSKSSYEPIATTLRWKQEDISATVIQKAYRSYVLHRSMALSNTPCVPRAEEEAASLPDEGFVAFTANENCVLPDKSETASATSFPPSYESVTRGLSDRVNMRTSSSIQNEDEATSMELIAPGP

[2] = target: T1, Sodium channel protein type 10 subunit alpha; experiment: Inhibition of sodium channel NaV1.8 expressed in rat ND7/23 cells by FLIPR assay; assay type: cell-based
Target sequence in this assay (Q9Y5Y9 whole entry): as the sequence (Q9Y5Y9 whole entry, looked up) above

Row | SMILES | inhibition [1] | IC50 [2]
1 | CC(C)CCC[C@@](C)(O)[C@H]1CC[C@H]2[C@@H]3C[C@H](O[C@@H]4O[C@H](C)[C@@H](O)[C@H](O[C@@H]5O[C@H](C)[C@@H](O[C@@H]6O[C@H](C)[C@@H](O[C@@H]7OC[C@H](O)[C@H](O)[C@H]7O)[C@H](O)[C@H]6O[C@@H]6O[C@H](C)[C@H](O)[C@H](O)[C@H]6O)[C@H](O)[C@H]5O[C@@H]5O[C@H](C)[C@@H](O)[C@H](O)[C@H]5O)[C@H]4O)[C@H]4C[C@@H](OS(=O)(=O)O)CC[C@]4(C)C3=CC[C@@]21C | 88% | 
2 | CC(C)CCC[C@@](C)(O)[C@H]1CC[C@H]2[C@@H]3C[C@H](O[C@@H]4O[C@H](C)[C@@H](O)[C@H](O[C@@H]5OC[C@@H](O[C@@H]6O[C@H](C)[C@@H](O[C@@H]7OC[C@H](O)[C@H](O)[C@H]7O)[C@H](O)[C@H]6O[C@@H]6O[C@H](C)[C@H](O)[C@H](O)[C@H]6O)[C@H](O)[C@H]5O[C@@H]5O[C@H](C)[C@@H](O)[C@H](O)[C@H]5O)[C@H]4O)[C@H]4C[C@@H](OS(=O)(=O)O)CC[C@]4(C)C3=CC[C@@]21C | 88% | 9 µM
